Tests used:
Type in all cases: functional
Escherichia coli [1] = experiment: Antimicrobial activity against community-acquired Escherichia coli expressing extended spectrum beta-lactamase obtained from patient with intra-abdominal infection assessed as susceptible isolates by EUCAST method
Escherichia coli [2] = experiment: Antimicrobial activity against hospital-acquired Escherichia coli obtained from patient with intra-abdominal infection assessed as susceptible isolates by EUCAST method
Klebsiella pneumoniae [3] = experiment: Antimicrobial activity against hospital-acquired Klebsiella pneumoniae obtained from patient with intra-abdominal infection assessed as susceptible isolates by EUCAST method
Klebsiella pneumoniae [4] = experiment: Antimicrobial activity against community-acquired Klebsiella pneumoniae obtained from patient with intra-abdominal infection assessed as susceptible isolates by EUCAST method
Klebsiella pneumoniae [5] = experiment: Antimicrobial activity against community-acquired Klebsiella pneumoniae expressing extended spectrum beta-lactamase obtained from patient with intra-abdominal infection assessed as susceptible isolates by EUCAST method
Escherichia coli [6] = experiment: Antimicrobial activity against hospital-acquired Escherichia coli expressing extended spectrum beta-lactamase obtained from patient with intra-abdominal infection assessed as susceptible isolates by EUCAST method
Escherichia coli [7] = experiment: Antimicrobial activity against community-acquired Escherichia coli obtained from patient with intra-abdominal infection assessed as susceptible isolates by EUCAST method
Klebsiella pneumoniae [8] = experiment: Antimicrobial activity against hospital-acquired Klebsiella pneumoniae expressing extended spectrum beta-lactamase obtained from patient with intra-abdominal infection assessed as susceptible isolates by EUCAST method
Escherichia coli [9] = experiment: Antimicrobial activity against community-acquired Escherichia coli obtained from patient with intra-abdominal infection assessed as susceptible isolates by EUCAST method in presence of beta-lactamase inhibitor Sulbactam
Klebsiella pneumoniae [10] = experiment: Antimicrobial activity against community-acquired Klebsiella pneumoniae obtained from patient with intra-abdominal infection assessed as susceptible isolates by EUCAST method in presence of beta-lactamase inhibitor Sulbactam
Escherichia coli [11] = experiment: Antimicrobial activity against hospital-acquired Escherichia coli obtained from patient with intra-abdominal infection assessed as susceptible isolates by EUCAST method in presence of beta-lactamase inhibitor Sulbactam
Klebsiella pneumoniae [12] = experiment: Antimicrobial activity against hospital-acquired Klebsiella pneumoniae expressing extended spectrum beta-lactamase obtained from patient with intra-abdominal infection assessed as susceptible isolates by EUCAST method in presence of beta-lactamase inhibitor Sulbactam
Escherichia coli [13] = experiment: Antimicrobial activity against hospital-acquired Escherichia coli expressing extended spectrum beta-lactamase obtained from patient with intra-abdominal infection assessed as susceptible isolates by EUCAST method in presence of beta-lactamase inhibitor Sulbactam
Escherichia coli [14] = experiment: Antimicrobial activity against community-acquired Escherichia coli expressing extended spectrum beta-lactamase obtained from patient with intra-abdominal infection assessed as susceptible isolates by EUCAST method in presence of beta-lactamase inhibitor Sulbactam
Klebsiella pneumoniae [15] = experiment: Antimicrobial activity against hospital-acquired Klebsiella pneumoniae obtained from patient with intra-abdominal infection assessed as susceptible isolates by EUCAST method in presence of beta-lactamase inhibitor Sulbactam
Klebsiella pneumoniae [16] = experiment: Antimicrobial activity against community-acquired Klebsiella pneumoniae expressing extended spectrum beta-lactamase obtained from patient with intra-abdominal infection assessed as susceptible isolates by EUCAST method in presence of beta-lactamase inhibitor Sulbactam

| Structure (SMILES) | Activity (Escherichia coli [1]) | Activity (Escherichia coli [2]) | Activity (Klebsiella pneumoniae [3]) | Activity (Klebsiella pneumoniae [4]) | Activity (Klebsiella pneumoniae [5]) | Activity (Escherichia coli [6]) | Activity (Escherichia coli [7]) | Activity (Klebsiella pneumoniae [8]) | Activity (Escherichia coli [9]) | Activity (Klebsiella pneumoniae [10]) | Activity (Escherichia coli [11]) | Activity (Klebsiella pneumoniae [12]) | Activity (Escherichia coli [13]) | Activity (Escherichia coli [14]) | Activity (Klebsiella pneumoniae [15]) | Activity (Klebsiella pneumoniae [16]) |
| --- | --- | --- | --- | --- | --- | --- | --- | --- | --- | --- | --- | --- | --- | --- | --- | --- |
| C[C@H]1COc2c(N3CCN(C)CC3)c(F)cc3c(=O)c(C(=O)O)cn1c23.C[C@H]1COc2c(N3CCN(C)CC3)c(F)cc3c(=O)c(C(=O)O)cn1c23.O [LEVOFLOXACIN] | 32.4% | 79.8% | 83.2% | 97.2% | 50% | 24.8% | 87% | 40.4% |  |  |  |  |  |  |  |  |
| NCC[C@H](O)C(=O)N[C@@H]1C[C@H](N)[C@@H](O[C@H]2O[C@H](CN)[C@@H](O)[C@H](O)[C@H]2O)[C@H](O)[C@H]1O[C@H]1O[C@H](CO)[C@@H](O)[C@H](N)[C@H]1O [AMIKACIN] | 59.5% | 97% | 92.7% | 98.6% | 75% | 53.7% | 98.5% | 66% |  |  |  |  |  |  |  |  |
| O=C(O)c1cn(C2CC2)c2cc(N3CCNCC3)c(F)cc2c1=O [CIPROFLOXACIN] | 29.7% | 78.3% | 79.2% | 94.4% | 50% | 22.3% |  | 29.8% |  |  |  |  |  |  |  |  |
| CO/N=C(\C(=O)N[C@@H]1C(=O)N2C(C(=O)O)=C(COC(C)=O)CS[C@H]12)c1csc(N)n1 [CEFOTAXIME] | 0% | 95.8% | 92.1% | 100% | 0% | 3.3% | 98.7% | 6.4% |  |  |  |  |  |  |  |  |
| CO/N=C(\C(=O)N[C@@H]1C(=O)N2C(C(=O)[O-])=C(C[N+]3(C)CCCC3)CS[C@H]12)c1csc(N)n1 [CEFEPIME] | 8.1% |  | 91.6% | 98.6% | 0% | 9.9% | 98.5% | 10.6% |  |  |  |  |  |  |  |  |
| C[C@@H](O)[C@H]1C(=O)N2C(C(=O)O)=C(S[C@@H]3CN[C@H](C(=O)Nc4cccc(C(=O)O)c4)C3)[C@H](C)[C@H]12 [ERTAPENEM] | 100% | 98.9% | 93.3% | 100% | 100% | 99.2% | 99.3% | 83% |  |  |  |  |  |  |  |  |
| CO/N=C(\C(=O)N[C@@H]1C(=O)N2C(C(=O)O)=C(CSc3nc(=O)c(O)nn3C)CS[C@H]12)c1csc(N)n1 [CEFTRIAXONE] | 2.7% | 95.8% | 90.5% | 98.6% | 0% | 3.3% | 98.3% | 4.3% |  |  |  |  |  |  |  |  |
| C[C@@H](O)[C@H]1C(=O)N2C(C(=O)O)=C(SCCNC=N)C[C@H]12 [IMIPENEM ANHYDROUS] | 100% | 99.6% | 94.9% | 100% | 100% | 100% | 99.8% | 89.4% |  |  |  |  |  |  |  |  |
| CC1(C)S[C@@H]2[C@H](NC(=O)[C@H](N)c3ccccc3)C(=O)N2[C@H]1C(=O)O [AMPICILLIN] |  |  |  |  |  |  |  |  | 53% | 79.2% | 44.5% | 6.4% | 9.1% | 5.4% | 62.9% | 0% |
| CC(C)(O/N=C(\C(=O)N[C@@H]1C(=O)N2C(C(=O)[O-])=C(C[n+]3ccccc3)CS[C@H]12)c1csc(N)n1)C(=O)O [CEFTAZIDIME] | 8.1% | 94.3% | 91% | 98.6% | 0% | 5.8% | 97.2% | 0% |  |  |  |  |  |  |  |  |

Source: ChEMBL document CHEMBL1275603, “Incidence and antimicrobial susceptibility of Escherichia coli and Klebsiella pneumoniae with extended-spectrum beta-lactamases in community- and hospital-associated intra-abdominal infections in Europe: results of the 2008 Study for Monitoring Antimicrobial Resistance Trends (SMART)” (2010)
